Measurements reported in US20150056272A1, “Synergistic Antimicrobial Preparations Containing Chlorite and Hydrogen Peroxide” (S.K. Pharmaceuticals, Inc., priority 1998, published 2015).

Tested on: candida albicans
Experiment: Candida albicans challenge (log reduction)
Type: cell-based
Details: components applied separately at the same concentrations (400 ppm chlorite; 100 ppm hydrogen peroxide)

Compound	effect on candida albicans activity
OO [hydrogen peroxide]	ineffective
chlorite	ineffective
